Assay results as given in ChEMBL document CHEMBL1201862, “PubChem BioAssay data set” (2004).
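All cell lines were grown in 96-well plates and treated with compound for 48 hours. GI50 = concentration required for 50% inhibition of growth.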 Activity calls are given as the source filed them. Rule as the data show it: active = GI50 up to about 1.1 µM and inactive = higher.

Tests used:
Assay in all cases: NCI anticancer screen, dose series, 48 h
MOLT-4 = tested on: MOLT-4
HOP-62 = tested on: HOP-62
EKVX = tested on: EKVX
NCI-H522 = tested on: NCI-H522
UACC-62 = tested on: UACC-62
SK-OV-3 = tested on: SK-OV-3
SK-MEL-5 = tested on: SK-MEL-5
M14 = tested on: M14
786-0 = tested on: 786-0
HT-29 = tested on: HT-29
SR = tested on: SR
SNB-19 = tested on: SNB-19
SNB-75 = tested on: SNB-75
Malme-3M = tested on: Malme-3M
SK-MEL-2 = tested on: SK-MEL-2
OVCAR-4 = tested on: OVCAR-4
LOX IMVI = tested on: LOX IMVI
OVCAR-8 = tested on: OVCAR-8
A498 = tested on: A498

Measured: GI50

O=C(CC(=O)c1ccc([N+](=O)[O-])cc1)C(=O)Nc1nccs1
inactive: MOLT-4 > 100 µM | HOP-62 > 100 µM | EKVX > 100 µM | NCI-H522 > 100 µM | UACC-62 > 100 µM | SK-OV-3 > 100 µM | SK-MEL-5 > 100 µM | M14 > 100 µM | 786-0 > 100 µM | HT-29 > 100 µM | SR > 100 µM | SNB-19 > 100 µM | SNB-75 > 100 µM | Malme-3M > 100 µM | SK-MEL-2 > 100 µM | OVCAR-4 > 100 µM | LOX IMVI > 100 µM

COC(=O)/C(=N/NC(C)(C)C)C(C(=O)OC)C(=O)C(=O)Nc1nc2ccc([N+](=O)[O-])cc2s1 (stereo unspecified)
inactive: MOLT-4 > 100 µM | HOP-62 > 100 µM | EKVX > 100 µM | NCI-H522 > 100 µM | UACC-62 > 100 µM | SK-OV-3 > 100 µM | SK-MEL-5 > 100 µM | M14 > 100 µM | 786-0 > 100 µM | HT-29 > 100 µM | SR > 100 µM | SNB-19 > 100 µM | OVCAR-8 > 100 µM | A498 23.6 µM | Malme-3M > 100 µM | SK-MEL-2 > 100 µM | OVCAR-4 > 100 µM | LOX IMVI > 100 µM

COc1cc2ccc1-c1cc(ccc1O)CC1c3cc4c(cc3CCN1C)Oc1c(OC)cc3c(c1O4)C(C2)N(C)CC3 (stereo unspecified)
inactive: MOLT-4 1.83 µM | HOP-62 1.93 µM | EKVX 2.1 µM | NCI-H522 1.75 µM | UACC-62 2 µM | SK-MEL-5 2.08 µM | M14 1.82 µM | 786-0 1.69 µM | HT-29 1.73 µM | SR 1.85 µM | SNB-19 1.98 µM | OVCAR-8 1.87 µM | A498 2.19 µM | SNB-75 1.8 µM | Malme-3M 1.89 µM | SK-MEL-2 1.79 µM | OVCAR-4 1.96 µM | LOX IMVI 1.99 µM

N#CC(c1nc2ccccc2nc1Cl)S(=O)(=O)c1ccccc1 (stereo unspecified)
inactive: MOLT-4 32.4 µM | HOP-62 > 100 µM | EKVX > 100 µM | NCI-H522 30.7 µM | UACC-62 35.8 µM | SK-MEL-5 > 100 µM | M14 > 100 µM | 786-0 > 100 µM | SR > 100 µM | SNB-19 > 100 µM | OVCAR-8 74 µM | A498 > 100 µM | SNB-75 > 100 µM | Malme-3M 56.9 µM | SK-MEL-2 97.1 µM | OVCAR-4 53.3 µM | LOX IMVI 43.5 µM

COC(=O)C(C#N)C1NC(=O)c2ccccc21 (stereo unspecified)
inactive: MOLT-4 > 100 µM | HOP-62 > 100 µM | EKVX > 100 µM | NCI-H522 > 100 µM | UACC-62 > 100 µM | SK-OV-3 > 100 µM | SK-MEL-5 > 100 µM | M14 > 100 µM | 786-0 > 100 µM | HT-29 > 100 µM | SR > 100 µM | SNB-19 > 100 µM | OVCAR-8 > 100 µM | A498 > 100 µM | SNB-75 9.71 µM | Malme-3M > 100 µM | OVCAR-4 > 100 µM | LOX IMVI > 100 µM

CC1(C)OC(=O)C(c2ccsc2)C(=O)O1
inactive: MOLT-4 > 100 µM | HOP-62 > 100 µM | EKVX > 100 µM | NCI-H522 > 100 µM | UACC-62 > 100 µM | SK-OV-3 > 100 µM | SK-MEL-5 > 100 µM | M14 > 100 µM | 786-0 > 100 µM | HT-29 > 100 µM | SR > 100 µM | SNB-19 > 100 µM | OVCAR-8 > 100 µM | SNB-75 > 100 µM | Malme-3M > 100 µM | SK-MEL-2 > 100 µM | OVCAR-4 > 100 µM | LOX IMVI > 100 µM
